The source made the active and inactive calls.
Key:
[1] = system: Streptococcus sp. 'group A'; assay: Streptococcus pyogenes SK(-)GAS viability under kanamycin – luminescence, BacTiterGlo, confirmation, counter-screen for streptokinase expression inhibitor project, dose response (AID 1900); format: functional, organism-based
Streptokinase A = target: T1, Streptokinase A (Streptococcus pyogenes serotype M1, UniProt P10520); assay: viability-normalized secreted streptokinase activity reduction – plasminogen activation absorbance, OD405, dose response (AID 1914); format: functional, Streptococcus pyogenes M1 GAS;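 also: secreted streptokinase activity via plasminogen activation per viability signal from cell pellet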
T1 sequence (P10520 whole entry): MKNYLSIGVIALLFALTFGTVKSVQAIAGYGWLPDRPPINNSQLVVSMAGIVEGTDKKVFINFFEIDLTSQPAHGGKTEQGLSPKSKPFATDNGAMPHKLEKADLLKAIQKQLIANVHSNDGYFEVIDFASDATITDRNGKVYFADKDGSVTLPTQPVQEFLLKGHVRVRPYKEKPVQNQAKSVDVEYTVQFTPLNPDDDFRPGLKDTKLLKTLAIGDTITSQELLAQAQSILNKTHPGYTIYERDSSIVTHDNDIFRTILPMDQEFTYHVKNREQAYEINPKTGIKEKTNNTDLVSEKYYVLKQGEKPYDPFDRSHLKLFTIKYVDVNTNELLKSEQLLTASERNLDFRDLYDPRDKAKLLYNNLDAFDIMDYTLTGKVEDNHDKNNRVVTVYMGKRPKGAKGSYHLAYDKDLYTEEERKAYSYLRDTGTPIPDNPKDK

[2] = Trypanosoma cruzi growth suppression in host cells – NIH3T3 host cells, beta-gal luminescence, confirmation (AID 2044); format: functional, cell-based;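 also: intracellular parasites grown in NIH/3T3 mouse fibroblasts as host cells; luminescent beta-galactosidase reporter signal from transgenic T. cruzi replicating inside host cells; inhibitors lower the luminescence signal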
[3] = NIH3T3 cell viability loss – ATP luminescence, mouse fibroblasts, counter-screen, dose response (AID 2010); format: functional, cell-based;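 also: cells exposed to compound for about 90 hours before reading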
Streptococcus = assay: GAS UMAA2166 growth inhibition – luminescence, BacTiterGlo, counter-screen for streptokinase expression inhibitor project, dose response (AID 1915); format: functional, organism-based;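 also: potency for reduction of bacterial viability or growth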
[4] = target: Glucose-6-phosphate 1-dehydrogenase (Homo sapiens, UniProt P11413); assay: inhibition of Homo sapiens G6PD, dose series – biochemical, fluorescence, selectivity assay for P. falciparum G6PD inhibitor project, dose response (AID 504792); format: functional
Chain of Glucose-6-phosphate 1-dehydrogenase (P11413 whole entry, the tested form may be a part): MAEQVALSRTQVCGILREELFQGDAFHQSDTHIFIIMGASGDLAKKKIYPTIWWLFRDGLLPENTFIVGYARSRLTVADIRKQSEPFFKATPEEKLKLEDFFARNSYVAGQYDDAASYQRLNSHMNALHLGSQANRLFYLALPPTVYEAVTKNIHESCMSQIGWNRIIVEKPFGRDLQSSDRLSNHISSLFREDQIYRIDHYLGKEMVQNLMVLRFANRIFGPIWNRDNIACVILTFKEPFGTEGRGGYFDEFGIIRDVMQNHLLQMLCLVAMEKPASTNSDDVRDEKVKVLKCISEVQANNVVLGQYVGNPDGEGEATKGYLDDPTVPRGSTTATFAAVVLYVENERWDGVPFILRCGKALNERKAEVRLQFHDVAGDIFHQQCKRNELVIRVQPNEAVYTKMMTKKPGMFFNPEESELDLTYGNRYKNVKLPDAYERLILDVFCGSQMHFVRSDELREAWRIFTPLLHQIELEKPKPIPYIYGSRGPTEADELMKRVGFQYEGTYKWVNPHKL

CHO = CHO cell viability loss, potency – luminescence, cytotoxicity control for TLR9-MyD88 binding inhibitor project, dose response (AID 588339); format: functional, cell-based, hamster; details: Cricetulus griseus;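 also: CHO cells stably coexpressing TLR9 and MyD88 fusions from primary screen; compound exposure lasted 48 hours before viability readout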
[5] = target: Heat shock protein HSP 90-alpha (Homo sapiens, UniProt P07900); format: functional, organism-based
Beta Lactamase = Beta Lactamase (Pseudomonas aeruginosa, UniProt Q932Y6); assay: BLA reporter interference, concentration series – BLA reporter cells, FRET fluorescence, artefact control for TLR9-MyD88 binding inhibitor project, dose response (AID 588341); format: cell-based;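 also: cell based assay in CHO-K1 cells stably expressing beta-lactamase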
Melanocortin receptor 4 = Melanocortin receptor 4 (Homo sapiens, UniProt P32245); assay: inhibitors of MC4R cAMP signaling – cell-based, TR-FRET, biased antagonists, dose response (AID 602298); format: functional;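 also: antagonist potency against agonist-stimulated cAMP production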
[6] = cAMP pathway inhibition in counterscreen cell line – TR-FRET cAMP detection, counter-screen for MC4R biased antagonist project, dose response (AID 602305); format: functional, cell-based;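 also: U2OS cells stimulated with forskolin near its EC80 as the cAMP inducer; potency is for inhibition of forskolin-stimulated cAMP signaling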
[7] = target: Serine/threonine-protein kinase pim-1 (Homo sapiens, UniProt P11309); format: functional
[8] = target: Serine/threonine-protein kinase pim-3 (Homo sapiens, UniProt Q86V86); format: functional;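 also: value obtained as one member of a broad kinase panel profiling effort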
[9] = target: Dual specificity protein kinase CLK4 (Homo sapiens, UniProt Q9HAZ1); format: functional
Chain of Dual specificity protein kinase CLK4 (Q9HAZ1 whole entry): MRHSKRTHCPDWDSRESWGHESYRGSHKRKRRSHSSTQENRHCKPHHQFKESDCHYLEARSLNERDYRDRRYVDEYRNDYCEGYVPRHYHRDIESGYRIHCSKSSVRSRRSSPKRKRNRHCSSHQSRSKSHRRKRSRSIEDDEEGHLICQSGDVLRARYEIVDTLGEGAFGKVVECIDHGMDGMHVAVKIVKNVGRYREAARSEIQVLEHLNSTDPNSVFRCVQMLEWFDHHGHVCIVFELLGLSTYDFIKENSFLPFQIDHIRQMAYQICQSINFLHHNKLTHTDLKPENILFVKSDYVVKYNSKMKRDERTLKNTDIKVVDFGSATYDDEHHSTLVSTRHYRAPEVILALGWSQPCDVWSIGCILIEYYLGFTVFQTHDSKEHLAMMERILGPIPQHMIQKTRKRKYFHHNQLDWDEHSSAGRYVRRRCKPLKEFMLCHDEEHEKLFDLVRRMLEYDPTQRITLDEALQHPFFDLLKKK

[10] = luciferase reporter signal suppression in cells – H4 neuroglioma cells, luminescence, dose response (AID 1990); format: functional, cell-based
BJ [11] = assay: BJ-TERT fibroblast viability loss – cell-based, RAS-independent, luminescence, dose response (AID 1933); format: functional; details: Homo sapiens
[12] = Luminescence Cell-Based Dose Response HTS to Identify Inhibitors of 5'UTR Stem-Loop Driven Prion Protein mRNA Translation in H4 Neuroglioblastoma Cells. [Related pubchem assays: 1827 (Project Summary), 1813 (Primary HTS)]; format: functional
[13] = alpha-synuclein stem-loop luciferase translation blockers – H4 neuroglioma cells, luminescence, confirmation (AID 1988); format: functional, cell-based
BJ [14] = assay: cells; format: functional, cell-based; details: Homo sapiens
BJ [15] = assay: BJ-TERT-LT-ST fibroblast viability loss – cell-based, RAS-independent, luminescence, dose response (AID 1935); format: functional; details: Homo sapiens;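 also: BJ fibroblasts immortalized with TERT plus LT and ST oncogenes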
[16] = DRD fibroblast viability loss – cell-based, non-viral oncogenic, luminescence, dose response (AID 1934); format: functional; details: Homo sapiens
[17] = HEK-293T viability loss after treatment – luminescence, T-cell screen hits, cytotoxicity control for TCR NF-kB inhibitor project, dose response (AID 489026); format: functional, cell-based;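 also: cells exposed to compound about 14 hours before the viability readout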
[18] = target: T2, High affinity choline transporter 1 (Homo sapiens, UniProt Q9GZV3); assay: human choline transporter potentiators, potency – cell-based, 10-point CRC, membrane potential dye, dose response (AID 602376); format: functional
T2 sequence (Q9GZV3 whole entry): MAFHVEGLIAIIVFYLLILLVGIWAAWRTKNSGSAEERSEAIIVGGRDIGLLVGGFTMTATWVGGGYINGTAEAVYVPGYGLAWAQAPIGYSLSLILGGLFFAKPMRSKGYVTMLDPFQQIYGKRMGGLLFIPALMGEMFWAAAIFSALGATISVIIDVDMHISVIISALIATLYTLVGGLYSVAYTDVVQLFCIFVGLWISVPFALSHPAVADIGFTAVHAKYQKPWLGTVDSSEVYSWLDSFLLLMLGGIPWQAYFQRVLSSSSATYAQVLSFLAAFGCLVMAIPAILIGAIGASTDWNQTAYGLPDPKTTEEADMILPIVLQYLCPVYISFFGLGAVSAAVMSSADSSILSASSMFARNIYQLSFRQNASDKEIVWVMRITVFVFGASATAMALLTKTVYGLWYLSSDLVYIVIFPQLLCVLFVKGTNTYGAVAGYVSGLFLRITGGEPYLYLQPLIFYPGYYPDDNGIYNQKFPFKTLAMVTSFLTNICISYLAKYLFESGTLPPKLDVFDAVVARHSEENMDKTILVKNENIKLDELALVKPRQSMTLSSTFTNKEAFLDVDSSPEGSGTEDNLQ

[19] = target: Dual specificity protein kinase CLK2 (Homo sapiens, UniProt P49760); format: functional
[20] = target: Tyrosine-protein kinase JAK2 (Homo sapiens, UniProt O60674); format: functional;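 also: JAK2 tested as one member of a kinase panel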
Chain of Tyrosine-protein kinase JAK2 (O60674 whole entry): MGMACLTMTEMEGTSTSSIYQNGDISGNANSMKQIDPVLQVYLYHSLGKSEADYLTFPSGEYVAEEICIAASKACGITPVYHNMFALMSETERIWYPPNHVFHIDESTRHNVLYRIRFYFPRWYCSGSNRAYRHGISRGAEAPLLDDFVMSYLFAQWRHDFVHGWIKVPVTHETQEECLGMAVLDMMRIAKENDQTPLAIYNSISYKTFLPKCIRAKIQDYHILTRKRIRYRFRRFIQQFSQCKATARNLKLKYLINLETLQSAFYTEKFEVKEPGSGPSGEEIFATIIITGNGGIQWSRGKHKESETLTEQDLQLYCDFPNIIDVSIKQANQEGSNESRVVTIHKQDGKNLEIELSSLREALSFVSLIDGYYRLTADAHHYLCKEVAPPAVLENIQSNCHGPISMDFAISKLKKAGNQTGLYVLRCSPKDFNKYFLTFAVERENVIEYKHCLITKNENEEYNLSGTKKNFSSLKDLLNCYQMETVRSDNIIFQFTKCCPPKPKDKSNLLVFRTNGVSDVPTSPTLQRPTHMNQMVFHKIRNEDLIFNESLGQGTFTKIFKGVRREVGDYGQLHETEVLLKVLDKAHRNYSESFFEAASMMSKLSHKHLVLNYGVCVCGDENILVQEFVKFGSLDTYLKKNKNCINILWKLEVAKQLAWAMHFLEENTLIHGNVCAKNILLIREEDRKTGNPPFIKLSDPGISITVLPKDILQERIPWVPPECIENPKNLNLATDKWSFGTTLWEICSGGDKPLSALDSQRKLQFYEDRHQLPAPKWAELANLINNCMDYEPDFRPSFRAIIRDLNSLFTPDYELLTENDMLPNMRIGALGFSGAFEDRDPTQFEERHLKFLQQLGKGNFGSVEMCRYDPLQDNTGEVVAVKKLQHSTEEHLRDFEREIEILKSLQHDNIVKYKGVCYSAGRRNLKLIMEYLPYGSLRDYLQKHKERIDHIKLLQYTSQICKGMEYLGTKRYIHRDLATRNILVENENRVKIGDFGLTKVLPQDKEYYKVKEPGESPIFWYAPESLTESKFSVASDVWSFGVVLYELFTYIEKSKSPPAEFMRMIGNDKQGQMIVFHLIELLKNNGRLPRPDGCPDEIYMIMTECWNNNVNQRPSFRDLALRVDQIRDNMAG

[21] = target: Serine/threonine-protein kinase TBK1 (Homo sapiens, UniProt Q9UHD2); assay: Navigating the Kinome. Panel member name: TBK1; format: functional
[22] = target: Proto-oncogene tyrosine-protein kinase receptor Ret (Homo sapiens, UniProt P07949); format: functional;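 also: measured within a kinome-wide profiling panel, RET as the panel member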
[23] = target: Tyrosine-protein kinase receptor TYRO3 (Homo sapiens, UniProt Q06418); format: functional;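 also: TYRO3 value obtained as one member of a kinome-wide profiling panel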
[24] = target: Serine/threonine-protein kinase D3 (Homo sapiens, UniProt O94806); format: functional;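 also: determined within a kinase panel screen, with PRKCN as the panel member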
[25] = target: Death-associated protein kinase 3 (Homo sapiens, UniProt O43293); format: functional;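 also: measured as one member of a kinome-wide profiling panel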
Aurora kinase A = Aurora kinase A (Homo sapiens, UniProt O14965); format: functional;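 also: value from the Navigating the Kinome kinase panel profiling, panel entry STK6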
[26] = target: Serine/threonine-protein kinase PAK 4 (Homo sapiens, UniProt O96013); format: functional;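 also: value obtained within a kinome profiling panel in which PAK4 was one of the panel members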
[27] = target: Fibroblast growth factor receptor 1 (Homo sapiens, UniProt P11362); format: functional
[28] = target: Casein kinase I isoform alpha (Homo sapiens, UniProt P48729); format: functional
[29] = target: Serine/threonine-protein kinase TAO1 (Homo sapiens, UniProt Q7L7X3); format: functional
Chain of Serine/threonine-protein kinase TAO1 (Q7L7X3 whole entry): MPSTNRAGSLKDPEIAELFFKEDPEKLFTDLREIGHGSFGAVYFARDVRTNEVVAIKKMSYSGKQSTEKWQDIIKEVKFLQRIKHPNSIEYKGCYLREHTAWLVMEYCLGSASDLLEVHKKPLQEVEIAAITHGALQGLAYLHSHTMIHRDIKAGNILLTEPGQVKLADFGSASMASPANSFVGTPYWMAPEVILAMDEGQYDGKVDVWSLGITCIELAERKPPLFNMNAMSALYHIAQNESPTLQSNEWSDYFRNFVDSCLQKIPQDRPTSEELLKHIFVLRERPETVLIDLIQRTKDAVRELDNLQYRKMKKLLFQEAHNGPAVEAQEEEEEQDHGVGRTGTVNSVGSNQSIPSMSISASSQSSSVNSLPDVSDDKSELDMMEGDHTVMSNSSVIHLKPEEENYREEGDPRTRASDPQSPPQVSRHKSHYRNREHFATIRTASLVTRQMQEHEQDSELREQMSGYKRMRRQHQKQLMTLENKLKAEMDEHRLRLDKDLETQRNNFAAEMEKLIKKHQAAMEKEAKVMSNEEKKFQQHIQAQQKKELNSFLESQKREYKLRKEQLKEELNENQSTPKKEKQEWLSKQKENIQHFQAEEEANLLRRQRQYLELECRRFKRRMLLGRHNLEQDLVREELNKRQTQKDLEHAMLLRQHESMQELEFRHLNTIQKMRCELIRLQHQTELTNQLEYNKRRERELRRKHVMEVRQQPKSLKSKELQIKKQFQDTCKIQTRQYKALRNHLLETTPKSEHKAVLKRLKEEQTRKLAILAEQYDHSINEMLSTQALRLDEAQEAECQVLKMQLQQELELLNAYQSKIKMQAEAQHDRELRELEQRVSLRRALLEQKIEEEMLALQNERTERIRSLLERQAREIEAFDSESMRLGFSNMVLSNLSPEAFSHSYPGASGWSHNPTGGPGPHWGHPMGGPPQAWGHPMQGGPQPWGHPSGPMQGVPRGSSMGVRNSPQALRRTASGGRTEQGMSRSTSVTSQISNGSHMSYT

[30] = target: Glycogen synthase kinase-3 alpha (Homo sapiens, UniProt P49840); format: functional;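 also: GSK3A result taken from a broad kinome-wide kinase panel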
[31] = target: Mitogen-activated protein kinase kinase kinase kinase 2 (Homo sapiens, UniProt Q12851); format: functional;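 also: measured as one member of a kinome-wide kinase panel, with MAP4K2 as the panel entry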
[32] = target: Platelet-derived growth factor receptor beta (Homo sapiens, UniProt P09619); format: functional;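 also: value comes from a kinome panel, with PDGFRB tested as one panel member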
[33] = target: Vascular endothelial growth factor receptor 2 (Homo sapiens, UniProt P35968); format: functional
[34] = target: Cyclin-dependent kinase 5 (Homo sapiens, UniProt Q00535); format: functional;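 also: CDK5 measured as one member of a kinase profiling panel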
Chain of Cyclin-dependent kinase 5 (Q00535 whole entry): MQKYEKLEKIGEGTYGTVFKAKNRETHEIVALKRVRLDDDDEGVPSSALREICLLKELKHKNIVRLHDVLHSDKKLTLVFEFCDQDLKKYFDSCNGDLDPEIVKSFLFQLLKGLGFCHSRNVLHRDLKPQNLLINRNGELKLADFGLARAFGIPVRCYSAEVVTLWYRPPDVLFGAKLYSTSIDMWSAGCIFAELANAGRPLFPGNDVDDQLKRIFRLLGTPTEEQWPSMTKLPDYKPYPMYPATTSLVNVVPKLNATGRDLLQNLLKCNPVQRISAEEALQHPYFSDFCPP

[35] = target: Dual specificity tyrosine-phosphorylation-regulated kinase 1B (Homo sapiens, UniProt Q9Y463); assay: Navigating the Kinome. Panel member name: DYRK1B; format: functional
Chain of Dual specificity tyrosine-phosphorylation-regulated kinase 1B (Q9Y463 whole entry): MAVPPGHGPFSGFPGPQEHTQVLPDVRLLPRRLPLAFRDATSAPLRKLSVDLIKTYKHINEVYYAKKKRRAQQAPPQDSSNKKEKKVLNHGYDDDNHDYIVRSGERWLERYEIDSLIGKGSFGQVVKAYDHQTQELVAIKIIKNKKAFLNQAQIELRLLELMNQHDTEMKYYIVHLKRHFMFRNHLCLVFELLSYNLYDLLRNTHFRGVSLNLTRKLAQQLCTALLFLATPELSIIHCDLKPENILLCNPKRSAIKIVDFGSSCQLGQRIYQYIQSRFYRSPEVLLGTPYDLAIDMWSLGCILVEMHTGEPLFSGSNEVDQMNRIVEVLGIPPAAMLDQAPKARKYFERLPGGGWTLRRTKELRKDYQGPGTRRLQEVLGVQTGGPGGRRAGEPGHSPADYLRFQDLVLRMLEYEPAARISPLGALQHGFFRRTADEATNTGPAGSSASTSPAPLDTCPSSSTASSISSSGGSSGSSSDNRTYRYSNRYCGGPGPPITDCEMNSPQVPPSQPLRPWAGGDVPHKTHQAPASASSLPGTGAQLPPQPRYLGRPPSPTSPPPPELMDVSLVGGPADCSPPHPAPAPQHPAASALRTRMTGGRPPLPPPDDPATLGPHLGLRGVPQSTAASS

[36] = target: cAMP-dependent protein kinase catalytic subunit PRKX (Homo sapiens, UniProt P51817); format: functional
Chain of cAMP-dependent protein kinase catalytic subunit PRKX (P51817 whole entry): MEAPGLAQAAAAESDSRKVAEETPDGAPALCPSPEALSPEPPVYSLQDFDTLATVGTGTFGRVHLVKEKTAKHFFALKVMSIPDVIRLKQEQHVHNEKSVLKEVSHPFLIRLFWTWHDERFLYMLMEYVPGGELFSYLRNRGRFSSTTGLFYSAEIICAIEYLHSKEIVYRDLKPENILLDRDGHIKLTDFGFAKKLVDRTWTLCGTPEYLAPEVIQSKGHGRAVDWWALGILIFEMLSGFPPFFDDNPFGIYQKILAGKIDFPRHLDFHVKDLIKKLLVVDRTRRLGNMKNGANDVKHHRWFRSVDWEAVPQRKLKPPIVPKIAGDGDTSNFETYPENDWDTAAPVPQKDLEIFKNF

[37] = target: Platelet-derived growth factor receptor alpha (Homo sapiens, UniProt P16234); assay: Navigating the Kinome. Panel member name: PDGFRA; format: functional
[38] = target: Leucine-rich repeat serine/threonine-protein kinase 2 (Homo sapiens, UniProt Q5S007); format: functional;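 also: value from a broad kinome-wide panel profiling study in which LRRK2 was one of the kinases tested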
[39] = target: Cyclin-dependent kinase 7 (Homo sapiens, UniProt P50613); format: functional;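 also: value comes from a kinome-wide kinase profiling panel in which CDK7 is one member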
[40] = target: Vascular endothelial growth factor receptor 1 (Homo sapiens, UniProt P17948); format: functional;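 also: measured within a kinome-wide profiling panel, FLT1 as the panel member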
[41] = target: Glycogen synthase kinase-3 beta (Homo sapiens, UniProt P49841); format: functional;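 also: value comes from a broad kinome profiling panel, with GSK3B as the panel member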
Chain of Glycogen synthase kinase-3 beta (P49841 whole entry): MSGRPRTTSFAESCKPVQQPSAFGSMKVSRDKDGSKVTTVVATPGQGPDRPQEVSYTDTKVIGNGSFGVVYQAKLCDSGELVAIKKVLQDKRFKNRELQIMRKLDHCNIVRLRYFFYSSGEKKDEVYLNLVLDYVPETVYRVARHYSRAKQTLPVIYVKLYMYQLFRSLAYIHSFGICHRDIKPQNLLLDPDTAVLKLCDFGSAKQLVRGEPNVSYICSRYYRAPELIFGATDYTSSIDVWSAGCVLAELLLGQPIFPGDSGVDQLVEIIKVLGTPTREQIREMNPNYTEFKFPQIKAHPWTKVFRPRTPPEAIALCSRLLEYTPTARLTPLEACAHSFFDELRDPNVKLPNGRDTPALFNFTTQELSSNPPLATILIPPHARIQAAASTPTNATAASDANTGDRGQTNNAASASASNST

[42] = target: Cyclin-dependent kinase 9 (Homo sapiens, UniProt P50750); format: functional;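 also: value from the CDK9 entry of a kinome-spanning kinase panel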
[43] = target: cAMP-dependent protein kinase catalytic subunit alpha (Homo sapiens, UniProt P17612); format: functional
[44] = target: Mitogen-activated protein kinase kinase kinase kinase 4 (Homo sapiens, UniProt O95819); format: functional
[45] = target: Macrophage colony-stimulating factor 1 receptor (Homo sapiens, UniProt P07333); format: functional;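 also: value comes from the Navigating the Kinome screening panel, CSF1R member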
[46] = target: Dual specificity tyrosine-phosphorylation-regulated kinase 1A (Homo sapiens, UniProt Q13627); format: functional;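 also: measured against DYRK1A as one member of a broad kinome profiling panel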
[47] = target: Inhibitor of nuclear factor kappa-B kinase subunit epsilon (Homo sapiens, UniProt Q14164); assay: Navigating the Kinome. Panel member name: IKBKE; format: functional
[48] = target: Leukocyte tyrosine kinase receptor (Homo sapiens, UniProt P29376); assay: Navigating the Kinome. Panel member name: LTK; format: functional

In the case of `Cc1ccc(NC(=O)c2cc(N3C(=O)C=CC3=O)ccc2N2CCOCC2)cc1Cl`, the EC50 [1] is reported as 12 µM (active), the EC50 (Streptokinase A) is reported as 6.68 µM (active) and the EC50 [2] is reported as 2.01 µM (active). The EC50 [3] was 6.37 µM (active), the EC50 (Streptococcus) was 13.4 µM (active) and the IC50 [4] was 48.1 µM (inactive). The IC50 (CHO) was 1.7 µM (active), the AC50 [5] was < 0.195 µM (active) and the IC50 (Beta Lactamase) was 9.48 µM (active). The IC50 (Melanocortin receptor 4) was 8.43 µM (active) and the IC50 [6] was 28.6 µM (inactive).
For `O=c1[nH]cnc2c(-c3ccccc3)c(C(F)(F)F)sc12`, the Ki [7] was 1.26 µM (active), the Ki [8] was 2.51 µM (active) and the Ki [9] was 2 µM (active).
In the case of `COc1ccc(OC)c(NS(=O)(=O)c2ccc(N3CCCC3=O)cc2)c1`, the EC50 [10] is reported as 3.37 µM (active), the EC50 (BJ [11]) is reported as 0.812 µM (active) and the EC50 [12] is reported as 7.75 µM (active). The EC50 [13] was 0.247 µM (active), the EC50 (BJ [14]) was 27.9 µM (inconclusive) and the EC50 (BJ [15]) was 1.26 µM (inconclusive). The EC50 [16] was 0.463 µM (active), the IC50 [17] was > 80 µM (inactive) and the EC50 [18] was 22.1 µM (active).
With `CC(=O)c1ccccc1-c1ncnc2[nH]ccc12` the Ki [19] was 20 µM (active), the Ki [20] was 50.1 µM (active) and the Ki [21] was 63.1 µM (active). The Ki [22] was 39.8 µM (active), the Ki [23] was 63.1 µM (active) and the Ki [24] was 39.8 µM (active). For the same compound, the Ki [25] was 63.1 µM (active), the Ki (Aurora kinase A) was > 63.1 µM (inactive) and the Ki [26] was 50.1 µM (active). For the same compound, the Ki [27] was 63.1 µM (active), the Ki [28] was 50.1 µM (active) and the Ki [29] was 39.8 µM (active). For the same compound, the Ki [30] was 63.1 µM (active), the Ki [31] was 25.1 µM (active) and the Ki [32] was 31.6 µM (active). The Ki [33] was 15.8 µM (active), the Ki [34] was 50.1 µM (active) and the Ki [35] was 20 µM (active). For the same compound, the Ki [36] was 39.8 µM (active), the Ki [37] was 31.6 µM (active) and the Ki [38] was 12.6 µM (active). The Ki [39] was 63.1 µM (active), the Ki [40] was 39.8 µM (active) and the Ki [41] was 63.1 µM (active). The Ki [42] was 50.1 µM (active), the Ki [43] was 15.8 µM (active) and the Ki [9] was 2.51 µM (active). The Ki [44] was 50.1 µM (active), the Ki [45] was 63.1 µM (active) and the Ki [46] was 20 µM (active). The Ki [47] was 100 µM (active) and the Ki [48] was 39.8 µM (active).

Reference: ChEMBL document CHEMBL1201862, “PubChem BioAssay data set” (2004)
